Columns and labels:
Assay type in all cases: in vivo
Kochia (Kochia scoparia) = assay: Test A preemergence; details: Bassia scoparia, pre-emergence, 240 h, preemergence, read-out: Kochia plant response rating
In short: (§1)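 Compounds were formulated in a non-phytotoxic solvent mixture with surfactant and applied as a preemergence directed soil spray after seeding, or sprayed postemergence over plants 2 to 10 cm tall at the one- to two-leaf stage. Evaluation after about 10 d compared treated with untreated controls, using a scale from 0 (no effect) to 100 (complete control).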

[1] = test system: barnyardgrass (Echinochloa crus-galli); assay: Test A preemergence; details: Echinochloa crus-galli, pre-emergence, 240 h
In short: as §1

[2] = test system: giant foxtail (Setaria faberii); assay: Test A preemergence; details: Setaria faberi, pre-emergence, 240 h
In short: as §1

[3] = test system: pigweed (Amaranthus retroflexus); assay: Test A preemergence; details: Amaranthus retroflexus, pre-emergence, 240 h, preemergence, read-out: Pigweed plant response rating
[4] = test system: ragweed (common ragweed, Ambrosia elatior); assay: Test A preemergence; details: Ambrosia artemisiifolia, pre-emergence, 240 h, preemergence, read-out: Ragweed plant response rating
In short: as §1

[5] = test system: ryegrass, Italian (Italian ryegrass, Lolium multiflorum); assay: Test A preemergence; details: Lolium multiflorum, pre-emergence, 240 h, preemergence, read-out: Ryegrass, Italian plant response rating
In short: as §1

[6] = test system: Galium (catchweed bedstraw, Galium aparine); assay: Test A postemergence; details: Galium, post-emergence, 240 h, postemergence, read-out: Galium plant response rating
In short: as §1

[7] = test system: barnyardgrass (Echinochloa crus-galli); assay: Test A postemergence; details: Echinochloa crus-galli, post-emergence, 240 h, postemergence, read-out: Barnyardgrass plant response rating
In short: as §1

[8] = test system: blackgrass (Alopecurus myosuroides); assay: Test A postemergence; details: Alopecurus myosuroides, post-emergence, 240 h, postemergence, read-out: Blackgrass plant response rating
In short: as §1

corn (Zea mays) = assay: Test A postemergence; details: Zea mays, post-emergence, 240 h, postemergence, read-out: Corn plant response rating
In short: as §1

[9] = test system: giant foxtail (Setaria faberii); assay: Test A postemergence; details: Setaria faberi, post-emergence, 240 h, postemergence, read-out: Foxtail, Giant plant response rating
In short: as §1

[10] = test system: pigweed (Amaranthus retroflexus); assay: Test A postemergence; details: Amaranthus retroflexus, post-emergence, 240 h, postemergence, read-out: Pigweed plant response rating
In short: as §1

[11] = test system: ragweed (common ragweed, Ambrosia elatior); assay: Test A postemergence; details: Ambrosia artemisiifolia, post-emergence, 240 h, postemergence, read-out: Ragweed plant response rating
In short: as §1

[12] = test system: ryegrass, Italian (Italian ryegrass, Lolium multiflorum); assay: Test A postemergence; details: Lolium multiflorum, post-emergence, 240 h, postemergence, read-out: Ryegrass, Italian plant response rating
In short: as §1

[13] = test system: wheat (Triticum aestivum); assay: Test A postemergence; details: Triticum aestivum, post-emergence, 240 h, postemergence, read-out: Wheat plant response rating
In short: as §1

[14] = 125 g ai/ha, 0 to 100 scale where 0 is no effect and 100 is complete control, approx. 10 d
[15] = 500 g ai/ha, visual injury rating about 10 d after treatment, 0 to 100 scale (0 no effect, 100 complete control)
[16] = 125 g ai/ha, visual injury on 0 to 100 scale (0 no effect, 100 complete control), approx. 10 d
[17] = 500 g ai/ha, 0 to 100 scale, 0 is no effect, 100 is complete control

CCc1cccc([C@H]2CCNC(=O)[C@@H]2C(=O)Nc2cccc(F)c2F)c1 [Compound 1058]
pest or weed control at 125 g/ha (Kochia (Kochia scoparia); [14]): 0% | pest or weed control at 500 g/ha (Kochia (Kochia scoparia); [15]): 30% | pest or weed control at 125 g/ha ([1]; 125 g ai/ha, Preemergence, visual injury rating after approximately 10 d, read-out: Barnyardgrass plant response rating (0 to 100 scale, 0 is no effect, 100 is complete control)): 90% | pest or weed control at 500 g/ha ([1]; 500 g ai/ha, preemergence, visual injury rating about 10 d after treatment, 0 to 100 scale (0 no effect, 100 complete control), read-out: Barnyardgrass plant response rating): 100% | pest or weed control at 125 g/ha ([2]; 125 g ai/ha, Preemergence, visual injury rating after approximately 10 d, read-out: Foxtail, Giant plant response rating (0 to 100 scale, 0 is no effect, 100 is complete control)): 90% | pest or weed control at 500 g/ha ([2]; 500 g ai/ha, preemergence, visual injury rating about 10 d after treatment, 0 to 100 scale (0 no effect, 100 complete control), read-out: Foxtail, Giant plant response rating): 100% | pest or weed control at 125 g/ha [3, 14]: 0% | pest or weed control at 500 g/ha [3, 15]: 0% | pest or weed control at 125 g/ha [4, 14]: 0% | pest or weed control at 500 g/ha [4, 15]: 0% | pest or weed control at 125 g/ha [5, 14]: 0% | pest or weed control at 500 g/ha [5, 15]: 40% | pest or weed control at 125 g/ha [6, 16]: 50% | pest or weed control at 500 g/ha [6, 17]: 60% | pest or weed control at 125 g/ha [7, 16]: 70% | pest or weed control at 500 g/ha [7, 17]: 90% | pest or weed control at 125 g/ha [8, 16]: 30% | pest or weed control at 500 g/ha [8, 17]: 40% | plant injury at 125 g/ha (corn (Zea mays); [16]): 0% | plant injury at 500 g/ha (corn (Zea mays); [17]): 30% | pest or weed control at 125 g/ha [9, 16]: 0% | pest or weed control at 500 g/ha [9, 17]: 0% | pest or weed control at 125 g/ha [10, 16]: 0% | pest or weed control at 500 g/ha [10, 17]: 0% | pest or weed control at 125 g/ha [11, 16]: 80% | pest or weed control at 500 g/ha [11, 17]: 90% | pest or weed control at 125 g/ha [12, 16]: 0% | pest or weed control at 500 g/ha [12, 17]: 0% | plant injury at 125 g/ha [13, 16]: 0% | plant injury at 500 g/ha [13, 17]: 0%
